Reference: ChEMBL document CHEMBL1201862, “PubChem BioAssay data set” (2004)
Activity calls are given as the source filed them.

Experiments:
[1] = Luminescence Cell-Based Dose Response to Identify Activators of 5'UTR Stem-Loop Driven Prion Protein mRNA Translation in H4-C Neuroglioblastoma Cells. [Related pubchem assays: 1829 (Project Summary), 1814 (Primary HTS)]; assay type: functional
H4 = assay: Luminescence Cell-Based Dose Response HTS to Identify Activators of 5'UTR Stem-Loop Driven Prion Protein mRNA Translation in H4 Neuroglioblastoma Cells. [Related pubchem assays: 1829 (Project Summary), 1814 (Primary HTS)]; assay type: functional; conditions: Homo sapiens
[2] = Luminescence Cell-Based Dose Confirmation to Identify Activators of 5'UTR Stem-Loop Driven Alpha-Synuclein mRNA Translation in H4 Neuroglioblastoma Cells. [Related pubchem assays: 1829 (Project Summary), 1814 (Primary HTS)]; assay type: functional
[3] = Luminescence Cell-Based Dose Response to Identify Activators of Luciferase Translation or Activity in H4-C Neuroglioblastoma Cells. [Related pubchem assays: 1829 (Project Summary), 1814 (Primary HTS)]; assay type: functional
[4] = Luminescence Cell-Based Dose Confirmation HTS to Identify Activators of 5'UTR Stem-Loop Driven Alpha-Synuclein mRNA Translation in H4 Neuroglioblastoma Cells. [Related pubchem assays: 1829 (Project Summary), 1814 (Primary HTS)]; assay type: functional
[5] = Luminescence Cell-Based Dose Response HTS to Identify Activators of Luciferase Translation or Activity in H4 […] Cells. [Related pubchem assays: 1829 (Project Summary), 1814 (Primary HTS)]; assay type: functional
NADPH oxidase 1 = NADPH oxidase 1 (Homo sapiens, UniProt Q9Y5S8); assay type: functional, cell-based;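 also: Cell-based assay with luminescence read-out, IC50 derived from inhibitor dose-response curves; intracellular ROS from endogenous NOX1 in intact HT29 colon cancer cells; potency of inhibitors that lower the ROS luminescence signal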
[6] = general mammalian cell viability loss – activator set, cherry-pick, cytotoxicity control for miR-122 modulator project, dose response (AID 720690); assay type: functional, cell-based;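 also: HEK293T human cells scored for general mammalian cytotoxicity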
Beta-galactosidase [7] = biological target: T1, Beta-galactosidase (Escherichia coli, UniProt Q8VNN2); assay: PubChem AID 485352; assay type: functional
[8] = biological target: T2, Heat shock factor protein 1 (Mus musculus, UniProt P38532); assay: enhancement of HSF1-driven luciferase signal – cell-based, NIH3T3, luminescence, dose retest, confirmation (AID 435004); assay type: functional;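 also: stress induced by proteasome inhibitor MG132 added 30 min after compound; luciferase reporter driven by HSF1 response element in NIH3T3 cells; actives raise luminescence as potentiators of the MG132 stress response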
T2 sequence (P38532 whole entry): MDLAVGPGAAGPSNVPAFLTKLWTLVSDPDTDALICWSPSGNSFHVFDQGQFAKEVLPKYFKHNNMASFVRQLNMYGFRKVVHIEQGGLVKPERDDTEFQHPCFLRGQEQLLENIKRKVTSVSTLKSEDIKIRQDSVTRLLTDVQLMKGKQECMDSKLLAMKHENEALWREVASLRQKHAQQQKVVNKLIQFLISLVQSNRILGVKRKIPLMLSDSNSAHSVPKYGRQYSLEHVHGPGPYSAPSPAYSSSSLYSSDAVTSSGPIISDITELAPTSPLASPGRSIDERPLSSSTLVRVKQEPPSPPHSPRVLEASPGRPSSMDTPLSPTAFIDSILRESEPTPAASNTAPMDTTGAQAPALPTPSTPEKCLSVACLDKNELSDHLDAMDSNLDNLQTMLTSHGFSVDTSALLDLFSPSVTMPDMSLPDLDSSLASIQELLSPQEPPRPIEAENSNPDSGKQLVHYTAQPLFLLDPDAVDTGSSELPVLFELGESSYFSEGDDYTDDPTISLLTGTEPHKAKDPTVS

[9] = biological target: T3, Kappa-type opioid receptor (Homo sapiens, UniProt P41145); assay type: functional
Protein RecA = biological target: T4, Protein RecA (Mycobacterium tuberculosis, UniProt P9WHJ3); assay: Fluorescence Cell-Free Homogeneous Dose Retest to Identify Inhibitors of RecA-Intein Splicing Activity. [Related pubchem assays (depositor defined):AID2097, AID2223, AID489010, AID492950]; assay type: functional
T4 sequence (P9WHJ3 whole entry): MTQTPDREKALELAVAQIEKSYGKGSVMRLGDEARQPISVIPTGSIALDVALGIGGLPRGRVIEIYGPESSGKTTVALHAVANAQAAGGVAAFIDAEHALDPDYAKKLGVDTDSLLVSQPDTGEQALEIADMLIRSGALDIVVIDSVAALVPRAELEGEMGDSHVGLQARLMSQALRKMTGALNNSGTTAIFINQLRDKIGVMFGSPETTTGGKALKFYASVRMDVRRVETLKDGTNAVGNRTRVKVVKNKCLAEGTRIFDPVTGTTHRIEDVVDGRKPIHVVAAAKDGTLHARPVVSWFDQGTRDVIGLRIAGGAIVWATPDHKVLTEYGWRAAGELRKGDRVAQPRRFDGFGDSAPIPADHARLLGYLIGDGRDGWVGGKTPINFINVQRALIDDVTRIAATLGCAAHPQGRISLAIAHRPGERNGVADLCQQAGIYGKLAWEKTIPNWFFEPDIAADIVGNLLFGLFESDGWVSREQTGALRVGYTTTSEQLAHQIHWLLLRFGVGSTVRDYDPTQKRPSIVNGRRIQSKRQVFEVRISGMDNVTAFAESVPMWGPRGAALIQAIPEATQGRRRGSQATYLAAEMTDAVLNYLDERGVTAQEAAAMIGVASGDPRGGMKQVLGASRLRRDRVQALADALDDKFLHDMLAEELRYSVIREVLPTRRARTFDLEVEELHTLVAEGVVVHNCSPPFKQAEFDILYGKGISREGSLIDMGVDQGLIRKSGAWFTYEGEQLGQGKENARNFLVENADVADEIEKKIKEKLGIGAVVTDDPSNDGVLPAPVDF

INS1 = assay: INS-1E survival protection against cytokine death – cell-based, luminescence, retest, dose response (AID 449756); assay type: functional; conditions: Rattus norvegicus;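 also: cell death triggered by IL-1 beta plus TNF-alpha plus IFN-gamma mixture; protective hits raise ATP signal compared with cytokine alone wells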
Beta Lactamase = Beta Lactamase (Pseudomonas aeruginosa, UniProt Q932Y6); assay: BLA reporter interference, concentration series – BLA reporter cells, FRET fluorescence, artefact control for TLR9-MyD88 binding inhibitor project, dose response (AID 588341); assay type: cell-based;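 also: cell based assay in CHO-K1 cells stably expressing beta-lactamase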
[10] = biological target: T5, Replicative DNA helicase DnaB (Mycobacterium tuberculosis, UniProt P9WMR3); assay: DnaB intein splicing inhibitors, dose response, biochemical, cell-free fluorescence (AID 449749); assay type: functional
T5 sequence (P9WMR3 whole entry): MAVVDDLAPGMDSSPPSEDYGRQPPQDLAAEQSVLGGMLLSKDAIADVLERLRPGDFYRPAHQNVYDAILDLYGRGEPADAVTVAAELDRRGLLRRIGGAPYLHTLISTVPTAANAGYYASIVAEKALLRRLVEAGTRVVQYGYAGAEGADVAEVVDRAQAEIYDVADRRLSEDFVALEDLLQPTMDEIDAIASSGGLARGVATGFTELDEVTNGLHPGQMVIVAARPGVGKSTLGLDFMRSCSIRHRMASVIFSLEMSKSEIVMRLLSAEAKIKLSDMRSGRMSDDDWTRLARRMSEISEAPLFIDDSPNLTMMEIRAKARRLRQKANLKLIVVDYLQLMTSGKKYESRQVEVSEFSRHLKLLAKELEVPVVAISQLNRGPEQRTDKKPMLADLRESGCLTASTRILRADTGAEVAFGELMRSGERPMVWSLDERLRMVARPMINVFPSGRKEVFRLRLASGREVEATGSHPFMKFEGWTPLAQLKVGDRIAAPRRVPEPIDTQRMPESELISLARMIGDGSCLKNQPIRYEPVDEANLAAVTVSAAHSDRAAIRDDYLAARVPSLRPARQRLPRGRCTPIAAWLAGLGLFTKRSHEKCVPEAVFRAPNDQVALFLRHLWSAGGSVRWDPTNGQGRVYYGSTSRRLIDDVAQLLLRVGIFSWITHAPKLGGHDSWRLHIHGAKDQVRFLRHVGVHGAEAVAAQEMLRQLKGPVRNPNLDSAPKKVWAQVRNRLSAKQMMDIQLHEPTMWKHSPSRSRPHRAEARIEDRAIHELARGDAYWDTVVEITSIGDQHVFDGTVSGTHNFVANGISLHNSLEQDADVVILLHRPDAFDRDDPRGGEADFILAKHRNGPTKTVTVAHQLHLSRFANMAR

[11] = activation of miR-122 Renilla sensor silencing – cell-based, Huh7 psiCHECK-miR122, Renilla luciferase, cherry-picked, dose response (AID 651956); assay type: functional;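 also: huh7 hepatoma cells stably carrying a psiCHECK-2 miR-122 sensor plasmid; renilla luciferase signal reporting endogenous miR-122 activity after 48 h compound exposure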
[12] = biological target: T3, Kappa-type opioid receptor; assay type: functional; remark: listed apart in the source
[13] = biological target: Sphingosine 1-phosphate receptor 1 (Homo sapiens, UniProt P21453); assay type: functional;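 also: Tango beta-arrestin reporter U2OS cells stimulated with S1P near its EC80; inhibitor potency meaning antagonism of receptor activation by the natural agonist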
[14] = general mammalian cell viability loss – inhibitor set, cherry-pick, set 2, cytotoxicity control for miR-122 modulator project, dose response (AID 720697); assay type: functional, cell-based
CHO = CHO cell viability loss, potency – luminescence, cytotoxicity control for TLR9-MyD88 binding inhibitor project, dose response (AID 588339); assay type: functional, cell-based, hamster; conditions: Cricetulus griseus;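 also: CHO cells stably coexpressing TLR9 and MyD88 fusions from primary screen; compound exposure lasted 48 hours before viability readout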
Beta-galactosidase [15] = biological target: T1, Beta-galactosidase; assay type: functional
[16] = biological target: Sphingosine 1-phosphate receptor 4 (Homo sapiens, UniProt O95977); assay: Fluorescence dose response cell-based high throughput screening assay for antagonists of the Sphingosine 1-Phosphate Receptor 4 (S1P4). [Related pubchem assays: 1524 (Confirmation in triplicates.), 1510 (Primary screen.)]; assay type: functional
[17] = biological target: T6, Type-1 angiotensin II receptor (Homo sapiens, UniProt P30556); assay: antagonism of angiotensin II type 1 receptor – cell-based, uHTS hits, selectivity assay for APJ receptor antagonist project, dose response (AID 463214); assay type: functional;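 also: antagonist potency against angiotensin II stimulated AT1 response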
T6 sequence (P30556 whole entry): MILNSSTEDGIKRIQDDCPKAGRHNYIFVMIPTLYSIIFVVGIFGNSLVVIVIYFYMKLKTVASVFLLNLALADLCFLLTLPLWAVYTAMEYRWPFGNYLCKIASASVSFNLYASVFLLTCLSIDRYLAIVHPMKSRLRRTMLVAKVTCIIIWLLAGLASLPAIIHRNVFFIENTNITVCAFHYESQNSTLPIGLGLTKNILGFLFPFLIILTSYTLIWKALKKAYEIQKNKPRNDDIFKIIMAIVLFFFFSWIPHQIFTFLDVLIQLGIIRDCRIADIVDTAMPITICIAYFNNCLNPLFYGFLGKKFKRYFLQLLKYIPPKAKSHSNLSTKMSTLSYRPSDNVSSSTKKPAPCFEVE

[18] = Trypanosoma cruzi growth suppression in host cells – NIH3T3 host cells, beta-gal luminescence, confirmation (AID 2044); assay type: functional, cell-based;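 also: intracellular parasites grown in NIH/3T3 mouse fibroblasts as host cells; luminescent beta-galactosidase reporter signal from transgenic T. cruzi replicating inside host cells; inhibitors lower the luminescence signal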
[19] = NIH3T3 cell viability loss – ATP luminescence, mouse fibroblasts, counter-screen, dose response (AID 2010); assay type: functional, cell-based;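 also: cells exposed to compound for about 90 hours before reading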
[20] = biological target: Epstein-Barr nuclear antigen 1 (Epstein-Barr virus (strain B95-8) (HHV-4) (Human herpesvirus 4), UniProt P03211); assay: inhibition of EBV nuclear antigen 1 DNA binding – biochemical, fluorescence polarization, 1536-well, dose response (AID 2381); design: species or system human gammaherpesvirus 4;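 also: fluorescence polarization of a Cy5 DNA probe bound by EBNA-1 protein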
[21] = biological target: Lytic switch protein BZLF1 (Epstein-Barr virus (strain B95-8) (HHV-4) (Human herpesvirus 4), UniProt P03206); assay: inhibition of BZLF1 ZTA DNA binding – biochemical, fluorescence polarization, Epstein-Barr virus, 1536-well, counter-screen for EBNA-1 inhibitor project, dose response (AID 2377); design: species or system human gammaherpesvirus 4;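 also: fluorescence polarization of Cy5-labelled ZRE DNA probe bound by purified Zta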
[22] = viability of HCT116 lacking mutant beta-catenin – cell-based, human colon tumor, dose response (AID 1045); assay type: functional;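 also: HCT116 colon tumor cells with beta catenin knocked out; cells exposed to compound for 60 hours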
[23] = viability of PTEN-deleted HCT116 cells – cell-based, HCT116 PTEN knockout, dose response (AID 1047); assay type: functional;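 also: HCT116 colon tumor cells with PTEN knocked out; cells exposed to compound for 60 hours before readout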
[24] = biological target: Protein-tyrosine kinase 2-beta (Homo sapiens, UniProt Q14289);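 also: potency of inhibitors of PYK2 kinase phosphorylation of poly-GT substrate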
Chain of Protein-tyrosine kinase 2-beta (Q14289 whole entry): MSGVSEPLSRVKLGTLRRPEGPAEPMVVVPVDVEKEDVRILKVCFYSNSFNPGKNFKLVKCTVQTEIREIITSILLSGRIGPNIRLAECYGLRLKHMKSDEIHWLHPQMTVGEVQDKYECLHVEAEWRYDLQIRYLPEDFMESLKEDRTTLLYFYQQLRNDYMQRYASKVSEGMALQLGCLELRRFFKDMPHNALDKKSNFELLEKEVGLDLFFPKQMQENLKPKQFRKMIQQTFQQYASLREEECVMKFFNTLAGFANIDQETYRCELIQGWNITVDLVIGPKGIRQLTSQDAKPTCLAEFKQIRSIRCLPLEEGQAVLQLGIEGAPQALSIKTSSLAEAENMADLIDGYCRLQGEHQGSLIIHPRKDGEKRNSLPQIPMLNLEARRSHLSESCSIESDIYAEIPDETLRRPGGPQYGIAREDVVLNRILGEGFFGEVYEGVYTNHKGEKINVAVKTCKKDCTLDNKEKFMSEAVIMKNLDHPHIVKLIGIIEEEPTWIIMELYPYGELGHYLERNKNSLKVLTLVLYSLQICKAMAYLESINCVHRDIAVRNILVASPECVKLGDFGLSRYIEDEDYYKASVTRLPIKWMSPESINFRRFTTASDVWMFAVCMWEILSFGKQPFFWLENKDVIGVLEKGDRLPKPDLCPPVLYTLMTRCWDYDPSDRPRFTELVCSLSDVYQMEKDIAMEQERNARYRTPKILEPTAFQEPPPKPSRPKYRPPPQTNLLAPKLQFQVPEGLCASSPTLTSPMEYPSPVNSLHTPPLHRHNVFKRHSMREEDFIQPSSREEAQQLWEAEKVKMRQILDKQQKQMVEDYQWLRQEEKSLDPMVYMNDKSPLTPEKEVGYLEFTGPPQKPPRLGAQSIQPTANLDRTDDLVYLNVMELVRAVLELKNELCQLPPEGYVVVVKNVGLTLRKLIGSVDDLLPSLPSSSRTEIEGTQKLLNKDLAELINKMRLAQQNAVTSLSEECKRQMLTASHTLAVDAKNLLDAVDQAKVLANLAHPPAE

T1 sequence (Q8VNN2 whole entry): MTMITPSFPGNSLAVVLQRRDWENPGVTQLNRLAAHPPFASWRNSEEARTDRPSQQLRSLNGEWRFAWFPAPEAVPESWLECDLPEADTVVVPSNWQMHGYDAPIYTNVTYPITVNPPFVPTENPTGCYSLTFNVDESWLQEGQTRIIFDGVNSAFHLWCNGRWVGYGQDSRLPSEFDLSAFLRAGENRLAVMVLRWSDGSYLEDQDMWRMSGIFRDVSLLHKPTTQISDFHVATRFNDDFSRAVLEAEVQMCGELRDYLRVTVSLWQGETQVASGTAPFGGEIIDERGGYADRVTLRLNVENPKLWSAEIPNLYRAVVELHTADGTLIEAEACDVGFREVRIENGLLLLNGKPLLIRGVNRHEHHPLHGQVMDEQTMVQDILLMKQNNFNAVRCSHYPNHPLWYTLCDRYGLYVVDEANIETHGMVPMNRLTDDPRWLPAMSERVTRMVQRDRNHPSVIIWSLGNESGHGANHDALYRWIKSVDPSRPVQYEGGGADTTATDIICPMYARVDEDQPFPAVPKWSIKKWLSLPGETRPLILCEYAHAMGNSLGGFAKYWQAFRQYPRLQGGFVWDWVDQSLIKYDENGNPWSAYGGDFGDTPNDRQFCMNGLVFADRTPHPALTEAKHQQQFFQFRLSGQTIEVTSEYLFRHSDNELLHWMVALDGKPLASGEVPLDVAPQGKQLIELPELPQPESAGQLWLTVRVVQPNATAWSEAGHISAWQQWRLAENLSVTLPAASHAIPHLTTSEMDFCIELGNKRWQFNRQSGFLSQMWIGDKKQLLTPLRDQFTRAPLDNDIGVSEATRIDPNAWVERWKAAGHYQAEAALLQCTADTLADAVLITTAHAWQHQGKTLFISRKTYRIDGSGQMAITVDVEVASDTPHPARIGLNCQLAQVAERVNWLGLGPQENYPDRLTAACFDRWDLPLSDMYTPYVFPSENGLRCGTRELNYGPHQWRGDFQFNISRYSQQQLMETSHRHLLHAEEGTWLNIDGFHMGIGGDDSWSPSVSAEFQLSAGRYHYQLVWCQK
T3 sequence (P41145 whole entry): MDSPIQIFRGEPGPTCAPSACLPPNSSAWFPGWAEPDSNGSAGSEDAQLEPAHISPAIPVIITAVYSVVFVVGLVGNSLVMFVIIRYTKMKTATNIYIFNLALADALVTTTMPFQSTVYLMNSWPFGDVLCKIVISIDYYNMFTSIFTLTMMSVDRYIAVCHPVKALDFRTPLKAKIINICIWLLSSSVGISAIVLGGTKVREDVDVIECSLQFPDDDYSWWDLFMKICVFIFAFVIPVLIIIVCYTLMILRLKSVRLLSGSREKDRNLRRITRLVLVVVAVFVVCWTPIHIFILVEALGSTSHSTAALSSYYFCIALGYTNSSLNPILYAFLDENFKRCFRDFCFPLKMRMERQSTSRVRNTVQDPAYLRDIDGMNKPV
Chain of Lytic switch protein BZLF1 (P03206 whole entry): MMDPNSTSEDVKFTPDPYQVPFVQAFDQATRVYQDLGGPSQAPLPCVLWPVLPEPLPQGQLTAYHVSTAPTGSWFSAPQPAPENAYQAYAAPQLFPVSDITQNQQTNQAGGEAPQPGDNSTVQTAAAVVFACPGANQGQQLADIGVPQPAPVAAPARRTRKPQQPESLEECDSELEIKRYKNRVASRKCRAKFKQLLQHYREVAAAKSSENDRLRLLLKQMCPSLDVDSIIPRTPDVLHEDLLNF
Chain of Epstein-Barr nuclear antigen 1 (P03211 whole entry): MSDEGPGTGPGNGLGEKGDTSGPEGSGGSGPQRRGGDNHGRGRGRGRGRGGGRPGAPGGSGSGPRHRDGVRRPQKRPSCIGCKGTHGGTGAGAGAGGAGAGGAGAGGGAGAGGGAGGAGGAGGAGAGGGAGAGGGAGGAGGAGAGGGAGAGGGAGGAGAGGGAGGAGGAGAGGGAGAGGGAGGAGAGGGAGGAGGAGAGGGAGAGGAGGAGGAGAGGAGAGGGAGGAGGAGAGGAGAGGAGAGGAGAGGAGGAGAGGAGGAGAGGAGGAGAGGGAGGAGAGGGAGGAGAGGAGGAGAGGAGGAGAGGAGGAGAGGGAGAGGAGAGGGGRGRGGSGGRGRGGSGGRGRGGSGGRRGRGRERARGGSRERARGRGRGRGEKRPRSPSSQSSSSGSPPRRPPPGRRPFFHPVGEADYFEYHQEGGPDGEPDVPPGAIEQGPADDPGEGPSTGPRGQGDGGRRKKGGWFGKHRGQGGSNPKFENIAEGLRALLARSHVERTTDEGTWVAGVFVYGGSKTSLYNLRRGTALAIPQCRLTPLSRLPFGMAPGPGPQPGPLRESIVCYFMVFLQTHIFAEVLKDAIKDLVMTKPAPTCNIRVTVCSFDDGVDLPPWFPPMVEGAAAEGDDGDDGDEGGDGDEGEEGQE
Chain of NADPH oxidase 1 (Q9Y5S8 whole entry): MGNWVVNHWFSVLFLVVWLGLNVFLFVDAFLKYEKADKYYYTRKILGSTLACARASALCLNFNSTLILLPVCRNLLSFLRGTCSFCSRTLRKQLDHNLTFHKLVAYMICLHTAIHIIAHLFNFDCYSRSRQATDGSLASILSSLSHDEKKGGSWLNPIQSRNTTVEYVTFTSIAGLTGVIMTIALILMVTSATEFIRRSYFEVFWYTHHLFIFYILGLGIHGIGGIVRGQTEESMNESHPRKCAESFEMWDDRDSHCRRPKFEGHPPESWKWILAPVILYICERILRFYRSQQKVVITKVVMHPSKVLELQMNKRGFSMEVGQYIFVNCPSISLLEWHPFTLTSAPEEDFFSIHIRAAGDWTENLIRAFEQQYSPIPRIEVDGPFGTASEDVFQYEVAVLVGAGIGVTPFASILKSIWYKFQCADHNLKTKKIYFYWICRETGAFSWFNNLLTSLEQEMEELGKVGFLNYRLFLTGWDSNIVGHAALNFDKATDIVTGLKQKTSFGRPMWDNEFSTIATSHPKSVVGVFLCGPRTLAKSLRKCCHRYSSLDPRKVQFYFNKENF
Chain of Sphingosine 1-phosphate receptor 4 (O95977 whole entry): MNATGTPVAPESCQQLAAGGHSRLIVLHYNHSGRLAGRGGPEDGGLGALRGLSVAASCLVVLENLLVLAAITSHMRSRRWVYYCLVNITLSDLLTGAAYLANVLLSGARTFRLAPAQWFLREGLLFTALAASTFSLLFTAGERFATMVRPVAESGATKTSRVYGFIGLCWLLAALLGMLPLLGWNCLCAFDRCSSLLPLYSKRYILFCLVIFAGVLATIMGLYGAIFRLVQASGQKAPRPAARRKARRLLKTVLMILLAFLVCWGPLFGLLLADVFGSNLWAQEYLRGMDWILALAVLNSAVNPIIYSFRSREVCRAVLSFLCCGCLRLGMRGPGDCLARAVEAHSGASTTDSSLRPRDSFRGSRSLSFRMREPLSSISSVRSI
Chain of Sphingosine 1-phosphate receptor 1 (P21453 whole entry): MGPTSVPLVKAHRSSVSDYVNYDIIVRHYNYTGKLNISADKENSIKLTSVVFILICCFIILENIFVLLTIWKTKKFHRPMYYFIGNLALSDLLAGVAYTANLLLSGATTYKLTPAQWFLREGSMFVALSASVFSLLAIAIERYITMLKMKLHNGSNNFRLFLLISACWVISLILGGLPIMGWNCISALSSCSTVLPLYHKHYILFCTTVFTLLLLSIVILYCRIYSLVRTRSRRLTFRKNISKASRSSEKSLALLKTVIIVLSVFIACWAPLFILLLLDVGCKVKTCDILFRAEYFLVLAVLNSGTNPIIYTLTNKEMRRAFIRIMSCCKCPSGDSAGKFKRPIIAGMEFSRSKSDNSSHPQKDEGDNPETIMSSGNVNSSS
Chain of Beta Lactamase (Q932Y6 whole entry): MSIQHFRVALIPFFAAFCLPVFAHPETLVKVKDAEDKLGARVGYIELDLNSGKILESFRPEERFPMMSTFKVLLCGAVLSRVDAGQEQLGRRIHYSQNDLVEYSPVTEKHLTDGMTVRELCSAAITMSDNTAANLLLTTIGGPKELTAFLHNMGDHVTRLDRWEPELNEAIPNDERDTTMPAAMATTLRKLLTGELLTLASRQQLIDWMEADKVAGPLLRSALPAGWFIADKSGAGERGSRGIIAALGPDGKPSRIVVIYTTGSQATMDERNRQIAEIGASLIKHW

O=C1c2ccccc2S(=O)(=O)N1CC1CC(c2ccc(Cl)cc2)=NO1 (configuration not stated)
EC50 [1]: 0.805 µM (active)
EC50 (H4): 9.96 µM (active)
EC50 [2]: 0.435 µM (active)
EC50 [3]: 0.407 µM (active)
EC50 [4]: < 0.1 µM (active)
EC50 [5]: < 0.1 µM (active)

COc1ccc(-c2nc(-c3ccc(O)cc3)[nH]c2-c2ccc(OC)cc2)cc1
IC50 (NADPH oxidase 1): 9.01 µM (active)

CCn1c(Cl)c(C=O)s/c1=N\S(=O)(=O)c1ccccc1
AC50 [6]: 3.2 µM (active)
EC50 (Beta-galactosidase [7]): > 40 µM (inactive)
EC50 [8]: > 260 µM (inconclusive)
IC50 [9]: 11.8 µM (active)
EC50 (Protein RecA): 1.3 µM (active)
AC50 (INS1): 5.12 µM (active)
IC50 (Beta Lactamase): 12.5 µM (inactive)
AC50 [10]: 18.2 µM (active)
AC50 [11]: 7.8 µM (active)
IC50 [12]: 4.85 µM
IC50 [13]: 7.5 µM (active)
AC50 [14]: 1.84 µM (active)
IC50 (CHO): 0.952 µM (active)
EC50 (Beta-galactosidase [15]): > 31.5 µM (inactive)
IC50 [16]: 1.48 µM (active)
IC50 [17]: 2.24 µM (active)

CC(=O)Nc1ccc(NC(=O)Cc2sc(-c3cccnc3)nc2-c2ccc(C)cc2)cc1
EC50 [18]: 1.28 µM (active)
EC50 [19]: > 60 µM (not active)
IC50 [20]: > 5.47 µM (active)
IC50 [21]: > 111 µM (not active)

COc1cccc(OC(=O)c2sc3ccccc3c2Cl)c1
IC50 (NADPH oxidase 1): > 17 µM (not active)

Cc1ccc(C(=O)Nc2ccc(C(F)(F)F)n(C)c2=O)cc1
EC50 [1]: 0.317 µM (active)
EC50 [2]: 0.311 µM (active)
EC50 [3]: 0.305 µM (active)
EC50 [5]: < 0.1 µM (inconclusive)

CCOC(=O)N1CCc2c(sc(NC(=O)C3COc4ccccc4O3)c2C(N)=O)C1 (configuration not stated)
IC50 [20]: 15.3 µM (not active)
IC50 [21]: > 111 µM (not active)

CN1CCc2c(sc3ncn4nc(-c5ccccc5O)nc4c23)C1
EC50 [22]: 10.4 µM (active)
EC50 [23]: 13.4 µM (active)
IC50 [24]: 17.9 µM (not active)
